According to patent publication US20190070170A1, “METHOD OF S[…]-1” (Macau University of Science and Technology, priority 2017, published 2019):

Assays:
[1] = system: mPGES-1; test: mPGES-1 mRNA level in LPS-activated rat peritoneal macrophages (qRT-PCR); type: cell-based; details: SIN 1 h, LPS 12 h
Procedure: Peritoneal macrophages were cultured in 6-well plates and pre-treated with the indicated concentration of SIN for 1 h, followed by LPS stimulation for another 12 h. RNA was isolated from rat peritoneal macrophages using the Nucleospin RNA kit from Macherey-Nagel (Duren, Germany) according to the manufacturer's instructions. RNA concentration derived from each sample was assessed by NanoDrop UV Spectrophotometer from Thermo Scientific (Asheville, N.C., USA). RNA (1 μg) was reverse transcripted using the transcriptor universal cDNA master reagents from Roche Applied Science (Mannheim, Germany). Gene expression quantification was performed by a high-productivity real-time quantitative PCR ViiA™ 7 machine using SYBR Green reagents from Roche Applied Science (Mannheim, Germany) according a standard protocol recommended by the manufacturer and the cycling parameters were as followed: uracil removal incubation (50° C., 2 min), polymerase activation (95° C., 10 min), 40 cycles of denaturation (95° C., 15 s) and annealing/extension (60° C., 30 s) and a melt curve stage (95° C., 15 s, 60° C., 1 min and 95° C., 15 s).
Rat primers used in the research are listed as follows:
• The levels of gene expression were quantitated using the 2(−Delta Delta C(T)) method. […]

[2] = system: COX-2; test: COX-2 protein expression in IL-1β-stimulated A549 cells (western blotting); type: cell-based; details: IL-1β with SIN or DEX for 48 h
Procedure: RAW264.7 and A549 cell lines were obtained from American Type Culture Collection (ATCC, Manassas, Va., USA) and maintained in DMEM (RAW264.7) or 1640 (A549) medium containing 10% FBS (Gibco-BRL, Grand Island, N.Y., USA) and antibiotics at 37° C. in a humidified atmosphere containing 5% CO2. RAW264.7 cells were plated in 6-well plates at a density of 4×10^5 cells and incubated for 24 h, then the cells were pretreated with different concentrations of SIN for 1 h before stimulating with LPS (100 ng/ml). A549 cells were seeded in 6-well plates at a density of 1×10^5 cells and incubated for 24 h, followed by pretreatment with SIN. A549 cells were then stimulated by IL-1β (1 ng/ml).
Whole-cell and nuclear proteins were obtained using RIPA lysis buffer (CST, Boston, Mass., USA) and Nuclear and Cytoplasmic Extraction Reagents kit from Thermo Scientific (Asheville, N.C., USA), respectively. For immunoblotting, proteins from whole-cell, cytoplasm, nuclear, and microsomal fractions were separated on SDS-PAGE, then transferred onto a nitrocellulose membrane from GE Healthcare Life Sciences (Buckinghamshire, UK), and incubated with 5% skimmed milk at room temperature for 1 h. […] The levels of protein expression were measured using Odyssey v3.0 software from Li-COR (Lincoln, Nebr., USA).

[3] = system: mPGES-1; test: mPGES-1 protein expression in LPS-activated rat peritoneal macrophages (western blotting); type: cell-based; details: SIN or DEX 1 h, LPS 24 h
Procedure: Sprague-Dawley (SD) rats from the University of Hong Kong were housed in cages with free access to food and water. Peritoneal macrophages of SD rats were isolated as described in Liu J. et al., Pharmacological research 2016, 111:303-315. Briefly, untreated rats were sacrificed and after laparotomy, about 50 ml cold sterile Hank's balanced salt solution (HBSS) was used to lavage the peritoneal cavity at twice, and then the peritoneal lavage fluid was collected and centrifuged at 1500 rpm for 10 min. The cell pellets was suspended at a density 1.5×10^6 cells/ml in pre-hearted DMEM medium with 10% heat-inactivated FBS, penicillin G (100 units/ml), streptomycin ([…]), and L-glutamine (2 mM), followed by seeding in 6-well plates at a density of 4.5×10^6 cells and incubation for 2 h. Then the medium were discarded to remove the non-adherent cells. The adherent cells were further washed for two times with pre-heated DMEM medium to remove floating cells. Next, cells were pre-treated with various concentration of SIN for 1 h, followed by stimulation with LPS (1 μg/ml).
Whole-cell and nuclear proteins were obtained using RIPA lysis buffer (CST, Boston, Mass., USA) and Nuclear and Cytoplasmic Extraction Reagents kit from Thermo Scientific (Asheville, N.C., USA), respectively. […] The levels of protein expression were measured using Odyssey v3.0 software from Li-COR (Lincoln, Nebr., USA).

[4] = system: carrageenan-induced paw edema; test: Carrageenan-induced rat paw edema model; type: in vivo, SD rats; details: SIN 25, 50 and 100 mg/kg i.p. 2 h before carrageenan
Procedure: The model of carrageenan-induced paw edema was performed with SD rats (150-200 g). […] Briefly, rats were fasted for 12 h before experiment and intraperitoneal injection was performed with three different doses (25, 50 and 100 mg/kg) of SIN, or DEX (reference drug, 2 mg/kg) or 0.9% saline (Vehicle and Normal group rats), at 2 h prior to the induction of paw edema. Paw edema was induced by subcutaneous injection of 100 μl of 1% (w/v) freshly prepared λ-carrageenan (Sigma, St Louis, Mo., USA) diluted in saline in the right hind foot pad. 100 μl sterile saline was injected to the rats in the right hind paw as normal control. Paw volumes (ml) of right hind foot of each rat were measured using a plethysmometer (type 7150; UGO Basile, Comerio, Italy) at 0 h (before carrageenan injection) and then again at 1, 2, 3 and 4 h after the injection of carrageenan or saline. The percentage of paw edema of the right hind paws of all groups were calculated at different time points by the following equation: Swelling ratio in each time points=(the paw volume after injection−the paw volume before injection)/the paw volume before injection×100

SMILES: COC1=C[C@@H]2[C@@H]3Cc4ccc(OC)c(O)c4[C@]2(CCN3C)CC1=O [SIN, sinomenine]
- mPGES-1 gene expression (mRNA) [1]: significantly and dose-dependently inhibited
- COX-2 protein expression [2]: did not suppress
- mPGES-1 protein expression [3]: significantly and dose-dependently inhibited
- paw edema (percentage of increase in paw volume) ([4]; at 2, 3 and 4 h): successfully reduced paw edema in a dose dependent manner
- paw edema (percentage of increase in paw volume) ([4]; at 1 h): no effects
